Counter-ions that a name gives are not always drawn.
Assay: Excretion of radioactivity after single oral administration to male rats, target dose 1 mg free base/kg
Format: in vivo, Sprague Dawley rats
Design: Excretion of Radioactivity: unit not given beside the values
Excerpt: [^14C] N,N,-diethyl-8,8-dipropyl-2-azaspiro[4,5]decane-2-propanamine dimaleate salt, (“Compound II”) with a specific activity of 91 uCi/mg and chemical purity >99%, and non-radiolabeled dimaleate salt of N,N,-diethyl-8,8-dipropyl-2-azaspiro[4,5]decane-2-propanamine dimaleate (Compound 1) chemical purity >98%, respectively, were used in this study. The site of the radiocarbon label in Compound II is depicted by an asterisk in Formula II. The non-radiolabeled material was used for reference purposes. The radiolabeled material was stored at ca […] in the dark and the non-radiolabeled material at ca −20° C. in the dark.
Three healthy male Sprague Dawley rats (Crl:CD(SD)BR), age ca 8-9 weeks, body weights at dosing 237-255 g, were supplied by Charles River (UK) Limited. The animals were housed in holding cages suitable for this species for 8 days prior to use. SDS Rat and Mouse Maintenance Diet No. 1, (Special Diets Services, Witham Essex), and mains quality water were available ad libitum throughout. The diet and water supplied to the animals were routinely analyzed for quality and no problems were detected. Holding and study areas had automatic control of light cycle and temperature. The actual range of temperature measured during the study was 17-25° C. with relative humidity measured at 60%.
The dose was prepared for oral administration on the day of dosing. […]
For each rat, an aliquot of the dose solution was administered orally by gavage. […] For each dose, the combined weight of dose and dosing equipment were recorded prior to dosing and the discharged dosing equipment was weighed after dosing. The concentration of radioactive material in each dose solution was also determined.
Immediately following dosing, the rats were placed into all glass metabolism cages suitable for the quantitative collection of excreta and expired air. All samples were collected into individual, uniquely labeled containers.
[…] The collection containers were cooled by solid CO2 during the first 48 hours after dosing.
[…] Collection containers were cooled by solid CO2 during the first 48 hours.
At the time of each feces collection, each cage was washed with water (ca 750 mL) and the washings were retained for radioassay. During the periods 0-24 h and 24-48 hours after dosing, expired air was passed through 2 serial traps containing ethanolamine:ethoxyethaonol (3:7, v/v) in order to effect the removal of CO2. The trap solvent was sampled for radioassay at the end of each collection period.
At 168 hours post dose, each animal was killed by CO2 narcosis and cervical dislocation. Gastrointestinal tracts were removed and retained separately from the carcasses in preparation for radioassay.
All urine and feces samples were stored frozen ([…]) prior to and after analysis. Cage washes were stored at room temperature until analysis was complete and were then discarded. All carcasses and gastro-intestinal tracts were stored frozen at ca-20° C. prior to analysis.
Duplicate aliquots of urine (ca 0.3 mL) and cage washings (ca 1 mL) were dispensed, diluted to 1 mL with distilled water (if considered necessary) and mixed with Quickzint 1 scintillation fluid (10 mL; Zinsser Analytic Maidenhead, UK).
Feces were homogenised in 1 to 2 volumes of water with the sample and homogenate weight recorded. Duplicate aliquots (ca 0.3) were taken from each sample and dispensed onto combustopads contained in combustocones (Can berra Packard Limited, Pangbourne, UK). When dry, these samples were combusted using a Packard Tri-Carb 306 Automatic Sample Oxidiser. The resultant ^14CO2 generated was collected by absorption in Carbo-Sorb® (8 mL; Can berra Packard Limited) to which Permafluor®E^+ scintillation fluid (10 mL; Can berra Packard Limited) was added.
For each rat, the carcass and gastro-intestinal tract with contents were solubilised in Soluene 350 (Canberra Packard). When dissolved, portions of the digest (ca 0.1 mL) were taken for liquid scintillation spectrometry. […]

## CCCC1(CCC)CCC2(CCN(CCCN(CC)CC)C2)CC1 [Compound II, [^14C] N,N,-diethyl-8,8-dipropyl-2-azaspiro[4,5]decane-2-propanamine dimaleate salt]
0-48 hours collection
  Dose recovered in expired air: Less than 0.2%
Cage Wash 0-24 hours, #1 male
  Excretion of Radioactivity: 0.1
Cage Wash 0-24 hours, #2 male
  Excretion of Radioactivity: 0.1
Cage Wash 0-24 hours, #3 male
  Excretion of Radioactivity: *<0.1
Cage Wash 0-24 hours, Mean
  Excretion of Radioactivity: ^+0.1
Cage Wash 0-168 hours, #1 male
  Excretion of Radioactivity: 0.7
Cage Wash 0-168 hours, #2 male
  Excretion of Radioactivity: 1.0
Cage Wash 0-168 hours, #3 male
  Excretion of Radioactivity: 1.3
Cage Wash 0-168 hours, Mean
  Excretion of Radioactivity: 1.0
Cage Wash 24-48 hours, #1 male
  Excretion of Radioactivity: 0.1
Cage Wash 24-48 hours, #2 male
  Excretion of Radioactivity: <0.1
Cage Wash 24-48 hours, #3 male
  Excretion of Radioactivity: 0.1
Cage Wash 24-48 hours, Mean
  Excretion of Radioactivity: 0.1
Cage Wash 48-72 hours, #1 male
  Excretion of Radioactivity: <0.1
Cage Wash 48-72 hours, #2 male
  Excretion of Radioactivity: 0.2
Cage Wash 48-72 hours, #3 male
  Excretion of Radioactivity: 0.2
Cage Wash 48-72 hours, Mean
  Excretion of Radioactivity: 0.1
Cage Wash 72-96 hours, #1 male
  Excretion of Radioactivity: 0.1
Cage Wash 72-96 hours, #2 male
  Excretion of Radioactivity: 0.2
Cage Wash 72-96 hours, #3 male
  Excretion of Radioactivity: 0.3
Cage Wash 72-96 hours, Mean
  Excretion of Radioactivity: 0.2
Cage Wash 96-120 hours, #1 male
  Excretion of Radioactivity: 0.1
Cage Wash 96-120 hours, #2 male
  Excretion of Radioactivity: 0.2
Cage Wash 96-120 hours, #3 male
  Excretion of Radioactivity: 0.2
Cage Wash 96-120 hours, Mean
  Excretion of Radioactivity: 0.2
Cage Wash 120-144 hours, #1 male
  Excretion of Radioactivity: 0.1
Cage Wash 120-144 hours, #2 male
  Excretion of Radioactivity: 0.1
Cage Wash 120-144 hours, #3 male
  Excretion of Radioactivity: 0.3
Cage Wash 120-144 hours, Mean
  Excretion of Radioactivity: 0.2
Cage Wash 144-168 hours, #1 male
  Excretion of Radioactivity: 0.2
Cage Wash 144-168 hours, #2 male
  Excretion of Radioactivity: 0.2
Cage Wash 144-168 hours, #3 male
  Excretion of Radioactivity: 0.2
Cage Wash 144-168 hours, Mean
  Excretion of Radioactivity: 0.2
Cage Washings, 168 hour collection period, #3 male
  Recovery of Radioactivity: *1.3 % administered dose
Cage Washings, 168 hour collection period, Mean
  Recovery of Radioactivity: ^+1.0 % administered dose
Carcass, at 168 hours, #1 male
  Recovery of Radioactivity: 11.3 % administered dose
Carcass, at 168 hours, #2 male
  Recovery of Radioactivity: 14.1 % administered dose
Carcass, at 168 hours, #3 male
  Recovery of Radioactivity: 14.9 % administered dose
Carcass, at 168 hours, Mean
  Recovery of Radioactivity: 13.5 % administered dose
Expired air 1, #1 male
  Recovery of Radioactivity: *<0.1 % administered dose
Expired air 1, #2 male
  Recovery of Radioactivity: *<0.1 % administered dose
Expired air 1, #3 male
  Recovery of Radioactivity: *<0.1 % administered dose
Expired air 1, Mean
  Recovery of Radioactivity: ^+<0.1 % administered dose
Expired air 2, #1 male
  Recovery of Radioactivity: *<0.1 % administered dose
Expired air 2, #2 male
  Recovery of Radioactivity: *<0.1 % administered dose
Expired air 2, #3 male
  Recovery of Radioactivity: *<0.1 % administered dose
Expired air 2, Mean
  Recovery of Radioactivity: ^+<0.1 % administered dose
Feces 0-24 hours, #1 male
  Excretion of Radioactivity: 18.2
Feces 0-24 hours, #2 male
  Excretion of Radioactivity: 14.7
Feces 0-24 hours, #3 male
  Excretion of Radioactivity: 17.7
Feces 0-24 hours, Mean
  Excretion of Radioactivity: 16.9
Feces 0-168 hours, #1 male
  Excretion of Radioactivity: 64.0
Feces 0-168 hours, #2 male
  Excretion of Radioactivity: 65.7
Feces 0-168 hours, #3 male
  Excretion of Radioactivity: 66.7
Feces 0-168 hours, Mean
  Excretion of Radioactivity: 65.5
Feces 24-48 hours, #1 male
  Excretion of Radioactivity: 16.3
Feces 24-48 hours, #2 male
  Excretion of Radioactivity: 17.2
Feces 24-48 hours, #3 male
  Excretion of Radioactivity: 14.5
Feces 24-48 hours, Mean
  Excretion of Radioactivity: 16.0
Feces 48-72 hours, #1 male
  Excretion of Radioactivity: 10.0
Feces 48-72 hours, #2 male
  Excretion of Radioactivity: 15.2
Feces 48-72 hours, #3 male
  Excretion of Radioactivity: 12.7
Feces 48-72 hours, Mean
  Excretion of Radioactivity: 12.6
Feces 72-96 hours, #1 male
  Excretion of Radioactivity: 7.5
Feces 72-96 hours, #2 male
  Excretion of Radioactivity: 7.8
Feces 72-96 hours, #3 male
  Excretion of Radioactivity: 8.0
Feces 72-96 hours, Mean
  Excretion of Radioactivity: 7.8
Feces 96-120 hours, #1 male
  Excretion of Radioactivity: 5.5
Feces 96-120 hours, #2 male
  Excretion of Radioactivity: 4.1
Feces 96-120 hours, #3 male
  Excretion of Radioactivity: 6.4
Feces 96-120 hours, Mean
  Excretion of Radioactivity: 5.3
Feces 120-144 hours, #1 male
  Excretion of Radioactivity: 3.5
Feces 120-144 hours, #2 male
  Excretion of Radioactivity: 3.5
Feces 120-144 hours, #3 male
  Excretion of Radioactivity: 4.3
Feces 120-144 hours, Mean
  Excretion of Radioactivity: 3.8
Feces 144-168 hours, #1 male
  Excretion of Radioactivity: 3.0
Feces 144-168 hours, #2 male
  Excretion of Radioactivity: 3.2
Feces 144-168 hours, #3 male
  Excretion of Radioactivity: 3.1
Feces 144-168 hours, Mean
  Excretion of Radioactivity: 3.1
GI Tract, at 168 hours, #1 male
  Recovery of Radioactivity: 13.8 % administered dose
GI Tract, at 168 hours, #2 male
  Recovery of Radioactivity: 13.3 % administered dose
GI Tract, at 168 hours, #3 male
  Recovery of Radioactivity: 10.5 % administered dose
GI Tract, at 168 hours, Mean
  Recovery of Radioactivity: 12.5 % administered dose
Total, 168 hour collection period, #1 male
  Recovery of Radioactivity: 96.7 % administered dose
Total, 168 hour collection period, #2 male
  Recovery of Radioactivity: 103.0 % administered dose
Total, 168 hour collection period, #3 male
  Recovery of Radioactivity: 103.2 % administered dose
Total, 168 hour collection period, Mean
  Recovery of Radioactivity: 101.0 % administered dose
Urine 0-6 hours, #1 male
  Excretion of Radioactivity: 0.1
Urine 0-168 hours, #1 male
  Excretion of Radioactivity: 6.9
Urine 0-168 hours, #2 male
  Excretion of Radioactivity: 8.9
Urine 0-168 hours, #3 male
  Excretion of Radioactivity: 9.8
Urine 0-168 hours, Mean
  Excretion of Radioactivity: 8.5
Urine 6-24 hours, #1 male
  Excretion of Radioactivity: 0.4
Urine 6-24 hours, #2 male
  Excretion of Radioactivity: 0.5
Urine 6-24 hours, #3 male
  Excretion of Radioactivity: 0.5
Urine 6-24 hours, Mean
  Excretion of Radioactivity: 0.5
Urine 24-48 hours, #1 male
  Excretion of Radioactivity: 1.0
Urine 24-48 hours, #2 male
  Excretion of Radioactivity: 1.4
Urine 24-48 hours, #3 male
  Excretion of Radioactivity: 1.4
Urine 24-48 hours, Mean
  Excretion of Radioactivity: 1.3
Urine 48-72 hours, #1 male
  Excretion of Radioactivity: 1.2
Urine 48-72 hours, #2 male
  Excretion of Radioactivity: 1.5
Urine 48-72 hours, #3 male
  Excretion of Radioactivity: 1.7
Urine 48-72 hours, Mean
  Excretion of Radioactivity: 1.5
Urine 72-96 hours, #1 male
  Excretion of Radioactivity: 1.3
Urine 72-96 hours, #2 male
  Excretion of Radioactivity: 1.6
Urine 72-96 hours, #3 male
  Excretion of Radioactivity: 2.0
Urine 72-96 hours, Mean
  Excretion of Radioactivity: 1.6
Urine 96-120 hours, #1 male
  Excretion of Radioactivity: 1.2
Urine 96-120 hours, #2 male
  Excretion of Radioactivity: 1.5
Urine 96-120 hours, #3 male
  Excretion of Radioactivity: 1.6
Urine 96-120 hours, Mean
  Excretion of Radioactivity: 1.4
Urine 120-144 hours, #1 male
  Excretion of Radioactivity: 0.9
Urine 120-144 hours, #2 male
  Excretion of Radioactivity: 1.3
Urine 120-144 hours, #3 male
  Excretion of Radioactivity: 1.3
Urine 120-144 hours, Mean
  Excretion of Radioactivity: 1.2
Urine 144-162 hours, #1 male
  Excretion of Radioactivity: 0.8
Urine 144-162 hours, #2 male
  Excretion of Radioactivity: 1.0
Urine 144-162 hours, #3 male
  Excretion of Radioactivity: 1.2
Urine 144-162 hours, Mean
  Excretion of Radioactivity: 1.0
At 168 hours
  Dose remaining in the carcass: ~13.5%
  Dose remaining in the gastro-intestinal tract: ~12.5%
By 168 hours after dosing
  Radioactive dose recovered in feces, mean: 65.5%
  Radioactive dose recovered in urine, mean: 8.5%
Full 168 hour collection period
  Dose recovered in excreta and cage washings, mean: 75.0%
total, range over animals, 168 hours
  Recovery of administered radioactive dose: 96.7-103.2%
Up to 120 hours after dosing
  Dose recovered in the excreta: ~66%

— US20050250801A1, “Method of treating cancer with azaspirane compositions” (priority 2003, published 2005)
